Experimental data as given in patent publication US20210403485A1, “PYRAZOLOPYRIMIDINE DERIVATIVE AS SELECTIVE TRK INHIBITOR” (SHANDONG LUYE PHARMACEUTICAL CO., LTD., priority 2018, published 2021).
Read-outs that look alike come from different tables or passages of the source. Each block holds one molecule with its values, some of them ahead of it.

Legend:
BaF3 ETV6-NTRK3-G623R = biological target: T1, BaF3 ETV6-NTRK3-G623R (Homo sapiens, UniProt Q16288, G623R, cells depend on it); experiment: Inhibitory activity against cell proliferation (CellTiter-Glo, 72 hours); assay type: cell-based; conditions: read-out: Half maximal inhibitory concentration IC50 of cells, BaF3 ETV6-NTRK3-G623R
T1 construct: fused on or other part: N-terminal part of ETV6 (TEL) as fusion partner (part of the key); P41212 (Transcription factor ETV6)
Protocol: (§1) Adenosine Triphosphate (ATP) is an energy carrier commonly used in various life activities in nature, and is the minimum unit for energy storage and transfer. The CellTiter-Glo™ cell viability assay kit uses luciferase as an assay agent, which requires the involvement of ATP in luminescence. The CellTiter-Glo™ reagent is added into cell culture medium to measure the luminescence value. The luminescence signal is directly proportional to the amount of ATP in the system, and the ATP is positively correlated with the number of viable cells. Therefore, the proliferation of cells can be detected by detecting the ATP content using the CellTiter-Glo kit. In this test, the cell lines used are Ba/F3 LMNA-NTRK1-WT, Ba/F3 LMNA-NTRK1-F589L, BaF3 LMNA-NTRK1-G595R, BaF3 LMNA-NTRK1-G667A, BaF3 ETV6-NTRK3-WT, BaF3 ETV6-NTRK3-G623R, and Ba/F3 SLC34A2-ROS1-WT stable cell strains, 5000 cells/well.
(§2) a) Cells in the logarithmic growth phase were collected and counted using a […]. The cell viability was detected by the trypan blue exclusion method, and the cell viability was kept over 90%.
(§3) b) The cell concentration was adjusted; 90 μL of the cell suspension was added to a 96-well plate.
c) Cells in the 96-well plate were incubated overnight at 37° C. with 5% CO2 and 95% humidity.
(§4) a) A 10-fold compound solution was prepared, with the highest concentration being 10 μM (a total of 9 concentrations, 3-fold dilution). 10 μL of compound solution was added to each well of a 96-well plate inoculated with cells, and three duplicate wells were set for each compound concentration.
b) The cells in the 96-well plate added with compound were incubated for 72 hours at 37° C. with 5% CO2 and 95% humidity, followed by the CTG (CellTiter-Glo) analysis.
(§5) a) The CTG reagent was thawed and the cell plate was equilibrated to room temperature for 30 minutes.
(§6) b) An equal volume of CTG solution was added to each well.
(§7) c) The plate was shaken on an orbital shaker for 5 minutes to lyse the cells.
(§8) d) The cell plate was placed at room temperature for 20 minutes to stabilize the luminescence signal.
(§9) e) The luminescence value was read.
(§10) The data were analyzed using GraphPad Prism 5.0 software, fitted with nonlinear S-curve regression to give dose-response curves, and IC50 values were calculated therefrom.

BaF3 LMNA-NTRK1-G595R = biological target: T2, BaF3 LMNA-NTRK1-G595R (Homo sapiens, UniProt P04629, G595R, cells depend on it); experiment: as above; assay type: cell-based; conditions: read-out: Half maximal inhibitory concentration IC50 of cells, BaF3 LMNA-NTRK1-G595R
T2 construct: fused on or other part: N-terminal part of LMNA as fusion partner (part of the key); P02545 (Prelamin-A/C)
Protocol: as §1, with “kit.” for “kit. In this test, the cell lines used are Ba/F3 LMNA-NTRK1-WT, Ba/F3 LMNA-NTRK1-F589L, BaF3 LMNA-NTRK1-G595R, BaF3 LMNA-NTRK1-G667A, BaF3 ETV6-NTRK3-WT, BaF3 ETV6-NTRK3-G623R, and Ba/F3 SLC34A2-ROS1-WT stable cell strains, 5000 cells/well.”
as §2, §3, §4, §5, §6, §7, §8, §9, §10

BaF3 ETV6-NTRK3-WT = biological target: T3, BaF3 ETV6-NTRK3-WT (Homo sapiens, UniProt Q16288); experiment: as above; assay type: cell-based; conditions: read-out: Half maximal inhibitory concentration IC50 of cells, BaF3 ETV6-NTRK3-WT
T3 construct: fused on or other part: N-terminal part of ETV6 (TEL) as fusion partner (part of the key); P41212 (Transcription factor ETV6)
Protocol: as §1, with “kit.” for “kit. In this test, the cell lines used are Ba/F3 LMNA-NTRK1-WT, Ba/F3 LMNA-NTRK1-F589L, BaF3 LMNA-NTRK1-G595R, BaF3 LMNA-NTRK1-G667A, BaF3 ETV6-NTRK3-WT, BaF3 ETV6-NTRK3-G623R, and Ba/F3 SLC34A2-ROS1-WT stable cell strains, 5000 cells/well.”
as §2, §3, §4, §5, §6, §7, §8, §9, §10

Ba/F3 LMNA-NTRK1-WT = biological target: T4, Ba/F3 LMNA-NTRK1-WT (Homo sapiens, UniProt P04629); experiment: as above; assay type: cell-based; conditions: read-out: Half maximal inhibitory concentration IC50 of cells, Ba/F3 LMNA-NTRK1-WT
T4 construct: fused on or other part: N-terminal part of LMNA as fusion partner (part of the key); P02545 (Prelamin-A/C)
Protocol: as §1, with “kit.” for “kit. In this test, the cell lines used are Ba/F3 LMNA-NTRK1-WT, Ba/F3 LMNA-NTRK1-F589L, BaF3 LMNA-NTRK1-G595R, BaF3 LMNA-NTRK1-G667A, BaF3 ETV6-NTRK3-WT, BaF3 ETV6-NTRK3-G623R, and Ba/F3 SLC34A2-ROS1-WT stable cell strains, 5000 cells/well.”
as §2, §3, §4, §5, §6, §7, §8, §9, §10

BaF3 LMNA-NTRK1-G667A = biological target: T5, BaF3 LMNA-NTRK1-G667A (Homo sapiens, UniProt P04629, G667A, cells depend on it); experiment: as above; assay type: cell-based; conditions: read-out: Half maximal inhibitory concentration IC50 of cells, BaF3 LMNA-NTRK1-G667A
T5 construct: fused on or other part: N-terminal part of LMNA as fusion partner (part of the key); P02545 (Prelamin-A/C)
Protocol: as §1, with “kit.” for “kit. In this test, the cell lines used are Ba/F3 LMNA-NTRK1-WT, Ba/F3 LMNA-NTRK1-F589L, BaF3 LMNA-NTRK1-G595R, BaF3 LMNA-NTRK1-G667A, BaF3 ETV6-NTRK3-WT, BaF3 ETV6-NTRK3-G623R, and Ba/F3 SLC34A2-ROS1-WT stable cell strains, 5000 cells/well.”
as §2, §3, §4, §5, §6, §7, §8, §9, §10

Ba/F3 SLC34A2-ROS1-WT = biological target: T6, Ba/F3 SLC34A2-ROS1-WT (Homo sapiens, UniProt P08922); experiment: as above; assay type: cell-based; conditions: read-out: Half maximal inhibitory concentration IC50 of cells, Ba/F3 SLC34A2-ROS1-WT
T6 construct: fused on or other part: N-terminal part of SLC34A2 as fusion partner (part of the key); O95436 (Sodium-dependent phosphate transport protein 2B)
Protocol: as §1, with “kit.” for “kit. In this test, the cell lines used are Ba/F3 LMNA-NTRK1-WT, Ba/F3 LMNA-NTRK1-F589L, BaF3 LMNA-NTRK1-G595R, BaF3 LMNA-NTRK1-G667A, BaF3 ETV6-NTRK3-WT, BaF3 ETV6-NTRK3-G623R, and Ba/F3 SLC34A2-ROS1-WT stable cell strains, 5000 cells/well.”
as §2, §3, §4, §5, §6, §7, §8, §9, §10

Ba/F3 LMNA-NTRK1-F589L = biological target: T7, Ba/F3 LMNA-NTRK1-F589L (Homo sapiens, UniProt P04629, F589L, cells depend on it); experiment: as above; assay type: cell-based; conditions: read-out: Half maximal inhibitory concentration IC50 of cells, Ba/F3 LMNA-NTRK1-F589L
T7 construct: fused on or other part: N-terminal part of LMNA as fusion partner (part of the key); P02545 (Prelamin-A/C)
Protocol: as §1, with “kit.” for “kit. In this test, the cell lines used are Ba/F3 LMNA-NTRK1-WT, Ba/F3 LMNA-NTRK1-F589L, BaF3 LMNA-NTRK1-G595R, BaF3 LMNA-NTRK1-G667A, BaF3 ETV6-NTRK3-WT, BaF3 ETV6-NTRK3-G623R, and Ba/F3 SLC34A2-ROS1-WT stable cell strains, 5000 cells/well.”
as §2, §3, §4, §5, §6, §7, §8, §9, §10

[1] = Pharmacokinetic test of compounds in mice (plasma, LC/MS/MS); assay type: in vivo, male CD-1 mice; conditions: for AUC(0-t): read-out: Area under the curve AUC0-last
Protocol: Experimental purpose: male CD-1 mice aged 7-9 weeks were selected as test animals, and the drug concentrations of the compounds in plasma at different time points after single intravenous injection (IV) and intragastric administration (PO) of the compounds were measured by an LC/MS/MS method, so that the pharmacokinetic behavior of the compounds disclosed herein in mice was studied, and the pharmacokinetic characteristic of the compounds was evaluated.
Drug preparation: the compounds were all prepared into clear solution by taking 5% DMSO+10% solutol+85% water as vehicle, and were used for administration in IV and PO groups. The dose of each compound administered was: IV, 3 mg/kg; PO, 10 mg/kg.

TrkA = biological target: T8, TrkA (Homo sapiens, UniProt P04629); experiment: Kinase inhibitory activity (33P-ATP, filtration-binding method, Reaction Biology Corp.); assay type: biochemical; conditions: read-out: Half maximal inhibitory concentration IC50 for kinases, TrkA
T8 construct: purchased Reaction Biology Corp
Protocol: (§11) The mixture was incubated at room temperature for 20 minutes, added with ^33P-ATP at a certain concentration to start the reaction, and then incubated at room temperature for 120 minutes. Finally, the radioactivity of the reactant was detected by the filtration-binding method. The final kinase activity was expressed as the ratio of the remaining kinase activity in the test sample to the kinase activity of the DMSO control. The dose-response curves were fitted and IC50 values were calculated by GraphPad software.

TrkC = biological target: T9, TrkC (Homo sapiens, UniProt Q16288); experiment: as above; assay type: biochemical; conditions: read-out: Half maximal inhibitory concentration IC50 for kinases, TrkC
T9 construct: purchased Reaction Biology Corp
Protocol: as §11

Ros1 = biological target: T10, Ros1 (Homo sapiens, UniProt P08922); experiment: as above; assay type: biochemical; conditions: read-out: Half maximal inhibitory concentration IC50 for kinases, Ros1
T10 construct: purchased Reaction Biology Corp
Protocol: as §11

TrkA-G595R = biological target: T11, TrkA-G595R (Homo sapiens, UniProt P04629, G595R); experiment: as above; assay type: biochemical; conditions: read-out: Half maximal inhibitory concentration IC50 for kinases, TrkA-G595R
T11 construct: purchased Reaction Biology Corp
Protocol: as §11

ALK = biological target: T12, ALK (Homo sapiens, UniProt Q9UM73); experiment: as above; assay type: biochemical; conditions: read-out: Half maximal inhibitory concentration IC50 for kinases, ALK
T12 construct: purchased Reaction Biology Corp
Protocol: as §11

TrkA-G667C = biological target: T13, TrkA-G667C (Homo sapiens, UniProt P04629, G667C); experiment: as above; assay type: biochemical; conditions: read-out: Half maximal inhibitory concentration IC50 for kinases, TrkA-G667C
T13 construct: purchased Reaction Biology Corp
Protocol: as §11

T8 sequence (P04629 33-796): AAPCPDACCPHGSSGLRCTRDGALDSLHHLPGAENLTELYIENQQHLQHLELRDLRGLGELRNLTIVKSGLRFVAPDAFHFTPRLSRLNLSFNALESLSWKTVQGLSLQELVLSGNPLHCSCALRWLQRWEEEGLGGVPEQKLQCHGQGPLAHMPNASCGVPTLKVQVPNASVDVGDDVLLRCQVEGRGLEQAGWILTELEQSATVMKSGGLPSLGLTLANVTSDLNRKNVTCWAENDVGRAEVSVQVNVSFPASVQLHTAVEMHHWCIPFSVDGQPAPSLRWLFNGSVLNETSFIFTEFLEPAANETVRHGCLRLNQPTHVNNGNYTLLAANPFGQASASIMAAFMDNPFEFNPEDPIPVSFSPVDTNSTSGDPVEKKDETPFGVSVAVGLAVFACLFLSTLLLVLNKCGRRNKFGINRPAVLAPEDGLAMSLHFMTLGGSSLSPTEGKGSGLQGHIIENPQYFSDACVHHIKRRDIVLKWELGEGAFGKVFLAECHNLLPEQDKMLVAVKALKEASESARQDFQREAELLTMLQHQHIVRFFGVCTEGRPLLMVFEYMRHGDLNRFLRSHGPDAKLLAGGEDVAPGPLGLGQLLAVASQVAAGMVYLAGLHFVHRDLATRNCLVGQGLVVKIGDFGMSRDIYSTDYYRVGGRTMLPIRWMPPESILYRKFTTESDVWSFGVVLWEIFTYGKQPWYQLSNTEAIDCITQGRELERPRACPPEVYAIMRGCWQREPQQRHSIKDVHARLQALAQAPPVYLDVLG
T13 sequence (P04629 33-796 G667C): as the sequence (P04629 33-796) above, with G635C counted along it
T10 sequence (P08922 28-2347): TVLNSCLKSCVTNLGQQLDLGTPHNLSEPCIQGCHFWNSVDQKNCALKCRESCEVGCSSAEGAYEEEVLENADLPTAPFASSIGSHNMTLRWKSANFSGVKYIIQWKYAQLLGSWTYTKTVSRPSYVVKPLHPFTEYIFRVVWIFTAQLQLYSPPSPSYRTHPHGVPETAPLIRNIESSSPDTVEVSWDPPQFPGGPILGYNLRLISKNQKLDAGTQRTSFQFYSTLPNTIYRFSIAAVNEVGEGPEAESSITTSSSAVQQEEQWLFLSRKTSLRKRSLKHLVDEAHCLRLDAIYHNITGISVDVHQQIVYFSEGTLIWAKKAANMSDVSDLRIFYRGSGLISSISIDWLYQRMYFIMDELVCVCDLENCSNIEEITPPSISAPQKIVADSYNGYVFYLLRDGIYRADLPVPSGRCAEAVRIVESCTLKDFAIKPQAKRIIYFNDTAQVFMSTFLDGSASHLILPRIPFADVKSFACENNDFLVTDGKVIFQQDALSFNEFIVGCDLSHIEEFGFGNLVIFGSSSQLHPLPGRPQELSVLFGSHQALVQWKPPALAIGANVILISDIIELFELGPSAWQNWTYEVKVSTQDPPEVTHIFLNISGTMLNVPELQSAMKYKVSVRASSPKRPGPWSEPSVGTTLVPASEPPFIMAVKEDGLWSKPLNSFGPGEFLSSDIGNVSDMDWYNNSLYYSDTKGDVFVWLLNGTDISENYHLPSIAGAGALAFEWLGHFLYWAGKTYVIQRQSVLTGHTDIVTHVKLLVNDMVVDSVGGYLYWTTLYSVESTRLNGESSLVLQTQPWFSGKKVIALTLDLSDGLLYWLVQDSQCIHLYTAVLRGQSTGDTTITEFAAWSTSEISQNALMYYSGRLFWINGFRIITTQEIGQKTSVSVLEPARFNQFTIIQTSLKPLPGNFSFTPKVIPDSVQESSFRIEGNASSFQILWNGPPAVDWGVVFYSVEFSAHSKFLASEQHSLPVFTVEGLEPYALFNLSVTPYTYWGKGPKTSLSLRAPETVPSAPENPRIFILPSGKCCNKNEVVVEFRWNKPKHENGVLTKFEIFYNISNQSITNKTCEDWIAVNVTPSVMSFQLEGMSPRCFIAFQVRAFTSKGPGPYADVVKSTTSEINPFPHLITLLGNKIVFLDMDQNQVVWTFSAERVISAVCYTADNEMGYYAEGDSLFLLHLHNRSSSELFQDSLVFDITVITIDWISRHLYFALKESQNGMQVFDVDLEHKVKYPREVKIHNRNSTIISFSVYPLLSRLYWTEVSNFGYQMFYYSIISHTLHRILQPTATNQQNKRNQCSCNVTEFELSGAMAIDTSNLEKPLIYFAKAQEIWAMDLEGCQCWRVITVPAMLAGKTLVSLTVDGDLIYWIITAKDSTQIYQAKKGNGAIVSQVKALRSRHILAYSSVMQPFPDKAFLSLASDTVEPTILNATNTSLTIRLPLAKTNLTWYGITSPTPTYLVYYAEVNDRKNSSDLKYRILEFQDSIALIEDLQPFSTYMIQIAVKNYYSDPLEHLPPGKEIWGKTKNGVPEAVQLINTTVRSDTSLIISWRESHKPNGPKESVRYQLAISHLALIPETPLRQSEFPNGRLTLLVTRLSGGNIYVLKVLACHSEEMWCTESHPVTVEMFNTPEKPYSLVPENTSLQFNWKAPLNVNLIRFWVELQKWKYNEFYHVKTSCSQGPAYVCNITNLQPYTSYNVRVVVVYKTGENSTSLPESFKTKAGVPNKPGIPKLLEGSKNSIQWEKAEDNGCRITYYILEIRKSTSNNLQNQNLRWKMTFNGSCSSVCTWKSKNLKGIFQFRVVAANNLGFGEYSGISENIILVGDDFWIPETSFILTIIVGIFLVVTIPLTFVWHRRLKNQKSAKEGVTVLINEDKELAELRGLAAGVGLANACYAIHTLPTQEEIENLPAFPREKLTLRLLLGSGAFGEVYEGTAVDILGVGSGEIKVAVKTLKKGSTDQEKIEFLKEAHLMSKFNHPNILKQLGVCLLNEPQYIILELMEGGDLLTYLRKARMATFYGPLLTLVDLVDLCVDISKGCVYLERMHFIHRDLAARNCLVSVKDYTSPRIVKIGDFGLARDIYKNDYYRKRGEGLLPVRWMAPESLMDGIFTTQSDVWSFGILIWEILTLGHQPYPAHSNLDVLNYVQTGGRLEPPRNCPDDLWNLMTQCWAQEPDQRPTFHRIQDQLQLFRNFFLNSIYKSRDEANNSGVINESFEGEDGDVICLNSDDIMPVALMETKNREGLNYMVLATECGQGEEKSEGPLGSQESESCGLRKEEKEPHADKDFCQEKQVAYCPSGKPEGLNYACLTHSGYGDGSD
T5 sequence (P04629 whole entry G667A, the tested form may be a part): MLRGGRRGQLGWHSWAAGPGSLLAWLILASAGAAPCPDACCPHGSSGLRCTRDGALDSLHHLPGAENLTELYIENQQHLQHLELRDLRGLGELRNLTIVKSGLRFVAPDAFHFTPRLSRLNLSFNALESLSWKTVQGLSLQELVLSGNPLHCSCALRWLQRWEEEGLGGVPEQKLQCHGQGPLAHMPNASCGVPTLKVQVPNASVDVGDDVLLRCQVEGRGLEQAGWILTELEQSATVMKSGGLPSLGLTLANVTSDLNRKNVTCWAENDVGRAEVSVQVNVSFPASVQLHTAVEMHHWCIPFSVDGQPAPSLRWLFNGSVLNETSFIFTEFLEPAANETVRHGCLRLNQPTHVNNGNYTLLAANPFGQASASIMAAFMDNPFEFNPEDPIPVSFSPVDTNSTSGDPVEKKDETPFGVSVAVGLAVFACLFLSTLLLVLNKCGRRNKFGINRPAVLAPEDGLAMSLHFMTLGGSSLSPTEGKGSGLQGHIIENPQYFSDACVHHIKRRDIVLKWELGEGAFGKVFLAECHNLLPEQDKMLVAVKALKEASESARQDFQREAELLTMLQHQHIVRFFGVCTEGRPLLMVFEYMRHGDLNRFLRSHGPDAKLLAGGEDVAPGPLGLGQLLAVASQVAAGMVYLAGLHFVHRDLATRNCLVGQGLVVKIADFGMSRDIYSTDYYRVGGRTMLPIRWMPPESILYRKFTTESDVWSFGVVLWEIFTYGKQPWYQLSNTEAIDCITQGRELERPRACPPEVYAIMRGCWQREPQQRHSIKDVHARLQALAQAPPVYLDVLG

GI50 (BaF3 ETV6-NTRK3-G623R): 11 nM | GI50 (BaF3 LMNA-NTRK1-G595R): 5.2 nM | GI50 (BaF3 ETV6-NTRK3-WT): 2.9 nM | GI50 (Ba/F3 LMNA-NTRK1-WT): 0.7 nM | GI50 (BaF3 LMNA-NTRK1-G667A): 3.8 nM | GI50 (Ba/F3 SLC34A2-ROS1-WT): 246 nM | GI50 (Ba/F3 LMNA-NTRK1-F589L): 56.6 nM | Apparent clearance Cl ([1]; IV, 3 mg/kg): 9.78 mL/min/kg | Vd ([1]; male, CD-1, mouse, plasma, IV, 3 mg/kg, read-out: Apparent volume of distribution Vd): 0.78 L/kg | AUC(0-t) ([1]; male, CD-1, mouse, plasma, IV, 3 mg/kg): 12 µM·h | half-life ([1]; male, CD-1, mouse, plasma, IV, 3 mg/kg, read-out: Half-life T1/2 (converted)): 61.2 min | AUC(0-t) ([1]; male, CD-1, mouse, plasma, PO, 10 mg/kg): 21.4 µM·h | bioavailability ([1]; male, CD-1, mouse, plasma, PO, 10 mg/kg, read-out: Bioavailability F %): 54% | Cmax ([1]; male, CD-1, mouse, plasma, PO, 10 mg/kg, read-out: Peak concentration Cmax): 7.12 µM | Tmax ([1]; male, CD-1, mouse, plasma, PO, 10 mg/kg, read-out: Time to peak Tmax): 22.8 min
Structure (SMILES): O=C1N[C@@H]2COC[C@@H]2Oc2ncc(F)cc2C2COCCN2c2ccn3ncc1c3n2 (stereo partly shown) [WX005A]

IC50 (TrkA): 526 nM
Structure (SMILES): O=C1NC2(CC2)COc2ccc(F)cc2[C@@H]2CCCCN2c2ccn3ncc1c3n2 [WX002B]

IC50 (TrkC): 0.3 nM | IC50 (Ros1): 28.7 nM | IC50 (TrkA): 4.1 nM | IC50 (TrkA-G595R): 8.9 nM | IC50 (ALK): > 1000 nM | IC50 (TrkA-G667C): 189 nM
Structure (SMILES): O=C1NC2(CC2)CNc2ncc(F)cc2C2COCCN2c2ccn3ncc1c3n2 (single isomer, unassigned) [WX010A]
